Measurements as given in publication PMC4467398, “Preclinical antitumor activity of ST7612AA1: a new oral thiol-based histone deacetylase (HDAC) inhibitor” (Oncotarget, 2014).

System: DOHH2 and TMD8 DLBCL cells
Assay: Gene expression profiling (HumanHT-12 v4 BeadChip, limma), ST7612AA1 300 nM 8 hrs vs DMSO
Type: cell-based, human
Settings: 300 nM 8 hrs

## CC(=O)SCCCCC[C@H](NC(=O)[C@H]1CCC(=O)N1)C(=O)Nc1ccccc1 [ST7612AA1]
  AveExpr.ST7612 1999-08-31 (probe ILMN_1659953): 8.50E-01
  AveExpr.ST7612 (probe ILMN_1816244): 7.08E-01
  AveExpr.ST7612 (probe ILMN_1827736): 8.76E-01
  AveExpr.ST7612 (probe ILMN_1909886): 7.98E-01
  AveExpr.ST7612 ABCA7 (probe ILMN_1743205): 7.64E-01
  AveExpr.ST7612 ADARB1 (probe ILMN_1679797): 7.60E-01
  AveExpr.ST7612 ALDH2 (probe ILMN_1793859): 8.03E-01
  AveExpr.ST7612 ALOX5 (probe ILMN_1680996): 8.46E-01
  AveExpr.ST7612 AMOT (probe ILMN_1792409): 7.65E-01
  AveExpr.ST7612 APAF1 (probe ILMN_1659463): 8.78E-01
  AveExpr.ST7612 APLP1 (probe ILMN_1763834): 8.17E-01
  AveExpr.ST7612 ARL6IP1 (probe ILMN_1708416): 6.93E-01
  AveExpr.ST7612 ATG2A (probe ILMN_1756006): 8.92E-01
  AveExpr.ST7612 ATP6V0C (probe ILMN_1773849): 8.22E-01
  AveExpr.ST7612 ATP6V1G2 (probe ILMN_1654541): 8.47E-01
  AveExpr.ST7612 ATP7B (probe ILMN_1722056): 8.88E-01
  AveExpr.ST7612 AVPI1 (probe ILMN_1671731): 8.94E-01
  AveExpr.ST7612 AZI1 (probe ILMN_1746206): 7.59E-01
  AveExpr.ST7612 BIK (probe ILMN_1770505): 7.57E-01
  AveExpr.ST7612 BLVRB (probe ILMN_1797793): 8.74E-01
  AveExpr.ST7612 BNIP3L (probe ILMN_1718961): 8.34E-01
  AveExpr.ST7612 BPHL (probe ILMN_1657746): 8.91E-01
  AveExpr.ST7612 C3orf34 (probe ILMN_1665217): 6.96E-01
  AveExpr.ST7612 C4orf32 (probe ILMN_1700257): 8.83E-01
  AveExpr.ST7612 C12orf52 (probe ILMN_1667857): 6.98E-01
  AveExpr.ST7612 C13orf15 (probe ILMN_1658494): 7.74E-01
  AveExpr.ST7612 C14orf173 (probe ILMN_2393450): 7.70E-01
  AveExpr.ST7612 C14orf179 (probe ILMN_1756877): 7.81E-01
  AveExpr.ST7612 CA2 (probe ILMN_2199439): 7.93E-01
  AveExpr.ST7612 CAMLG (probe ILMN_1714599): 7.30E-01
  AveExpr.ST7612 CASC4 (probe ILMN_2325574): 6.85E-01
  AveExpr.ST7612 CBX7 (probe ILMN_1657361): 7.49E-01
  AveExpr.ST7612 CCDC24 (probe ILMN_1718771): 6.89E-01
  AveExpr.ST7612 CCDC92 (probe ILMN_1731107): 8.05E-01
  AveExpr.ST7612 CD74 (probe ILMN_1761464): 8.47E-01
  AveExpr.ST7612 CD74 (probe ILMN_2379644): 7.27E-01
  AveExpr.ST7612 CDC2L6 (probe ILMN_1676891): 6.96E-01
  AveExpr.ST7612 CDC42EP5 (probe ILMN_1774982): 8.75E-01
  AveExpr.ST7612 CDK2AP2 (probe ILMN_1690653): 8.01E-01
  AveExpr.ST7612 CECR1 (probe ILMN_1751851): 8.43E-01
  AveExpr.ST7612 CLCC1 (probe ILMN_1671933): 8.48E-01
  AveExpr.ST7612 CLIC4 (probe ILMN_2063586): 7.49E-01
  AveExpr.ST7612 CMTM8 (probe ILMN_1710124): 7.00E-01
  AveExpr.ST7612 COTL1 (probe ILMN_1788283): 6.87E-01
  AveExpr.ST7612 CRIP1 (probe ILMN_1656920): 8.56E-01
  AveExpr.ST7612 CRYM (probe ILMN_1779241): 8.32E-01
  AveExpr.ST7612 CSRP1 (probe ILMN_1811921): 7.01E-01
  AveExpr.ST7612 CSTB (probe ILMN_1761797): 8.06E-01
  AveExpr.ST7612 CTSB (probe ILMN_2359742): 8.56E-01
  AveExpr.ST7612 CXADR (probe ILMN_1796925): 8.18E-01
  AveExpr.ST7612 CXorf57 (probe ILMN_1703279): 8.25E-01
  AveExpr.ST7612 CYB5R1 (probe ILMN_1729237): 7.59E-01
  AveExpr.ST7612 CYB5R3 (probe ILMN_1740441): 7.06E-01
  AveExpr.ST7612 CYP2R1 (probe ILMN_2119774): 7.88E-01
  AveExpr.ST7612 DEF8 (probe ILMN_1767509): 8.37E-01
  AveExpr.ST7612 DGCR6L (probe ILMN_3245688): 7.47E-01
  AveExpr.ST7612 DNMT3B (probe ILMN_1794692): 8.14E-01
  AveExpr.ST7612 DSTN (probe ILMN_1706426): 7.52E-01
  AveExpr.ST7612 DYNC1H1 (probe ILMN_1780302): 6.97E-01
  AveExpr.ST7612 DYNLL2 (probe ILMN_1772796): 8.61E-01
  AveExpr.ST7612 DYRK3 (probe ILMN_2400322): 6.97E-01
  AveExpr.ST7612 DYRK3 (probe ILMN_2400326): 8.26E-01
  AveExpr.ST7612 ECHS1 (probe ILMN_1718132): 7.78E-01
  AveExpr.ST7612 EGR1 (probe ILMN_1762899): 8.42E-01
  AveExpr.ST7612 ELOF1 (probe ILMN_1723185): 7.14E-01
  AveExpr.ST7612 ENC1 (probe ILMN_1779147): 7.93E-01
  AveExpr.ST7612 ENO2 (probe ILMN_1765796): 7.11E-01
  AveExpr.ST7612 ERRFI1 (probe ILMN_1665510): 7.44E-01
  AveExpr.ST7612 ESAM (probe ILMN_1668092): 7.54E-01
  AveExpr.ST7612 F11R (probe ILMN_2342033): 8.81E-01
  AveExpr.ST7612 FAM65A (probe ILMN_1680037): 7.70E-01
  AveExpr.ST7612 FAM116B (probe ILMN_1659029): 7.74E-01
  AveExpr.ST7612 FAM120B (probe ILMN_1679641): 7.62E-01
  AveExpr.ST7612 FAM149B1 (probe ILMN_3245452): 7.21E-01
  AveExpr.ST7612 FAM167A (probe ILMN_3248511): 7.13E-01
  AveExpr.ST7612 FBXO18 (probe ILMN_1729430): 7.97E-01
  AveExpr.ST7612 FCGRT (probe ILMN_1705302): 6.92E-01
  AveExpr.ST7612 FGD2 (probe ILMN_2115005): 7.14E-01
  AveExpr.ST7612 FGF9 (probe ILMN_1762531): 7.84E-01
  AveExpr.ST7612 FHL1 (probe ILMN_1805842): 7.76E-01
  AveExpr.ST7612 FLJ22795 (probe ILMN_2150802): 8.56E-01
  AveExpr.ST7612 FOXC1 (probe ILMN_1738401): 8.63E-01
  AveExpr.ST7612 FOXO1 (probe ILMN_1738816): 8.61E-01
  AveExpr.ST7612 FOXO4 (probe ILMN_1712095): 6.93E-01
  AveExpr.ST7612 FSD1 (probe ILMN_1813490): 7.25E-01
  AveExpr.ST7612 FUCA1 (probe ILMN_1752728): 8.57E-01
  AveExpr.ST7612 G6PD (probe ILMN_1697559): 6.93E-01
  AveExpr.ST7612 GABARAPL2 (probe ILMN_1796458): 7.62E-01
  AveExpr.ST7612 GAMT (probe ILMN_1756469): 8.74E-01
  AveExpr.ST7612 GATM (probe ILMN_1729180): 7.75E-01
  AveExpr.ST7612 GCH1 (probe ILMN_1812759): 7.11E-01
  AveExpr.ST7612 GOLGB1 (probe ILMN_1747935): 7.13E-01
  AveExpr.ST7612 GPT2 (probe ILMN_1684158): 8.12E-01
  AveExpr.ST7612 GRN (probe ILMN_1724250): 8.24E-01
  AveExpr.ST7612 HABP4 (probe ILMN_2107991): 7.82E-01
  AveExpr.ST7612 HAGH (probe ILMN_1772731): 8.84E-01
  AveExpr.ST7612 HERC1 (probe ILMN_1786211): 7.40E-01
  AveExpr.ST7612 HERPUD1 (probe ILMN_2374159): 8.50E-01
  AveExpr.ST7612 HEY1 (probe ILMN_1788203): 8.91E-01
  AveExpr.ST7612 HEY2 (probe ILMN_1682034): 7.56E-01
  AveExpr.ST7612 HIST1H1C (probe ILMN_1757406): 8.24E-01
  AveExpr.ST7612 HIST2H2AA3 (probe ILMN_2144426): 8.03E-01
  AveExpr.ST7612 HLA-DPA1 (probe ILMN_1772218): 8.12E-01
  AveExpr.ST7612 HLA-DQA1 (probe ILMN_1808405): 8.25E-01
  AveExpr.ST7612 HLA-DRB4 (probe ILMN_1752592): 7.27E-01
  AveExpr.ST7612 HLA-E (probe ILMN_1765258): 8.07E-01
  AveExpr.ST7612 HLTF (probe ILMN_1673820): 7.48E-01
  AveExpr.ST7612 HOOK2 (probe ILMN_1682147): 7.36E-01
  AveExpr.ST7612 HSPA1B (probe ILMN_1660436): 7.16E-01
  AveExpr.ST7612 ID1 (probe ILMN_1664861): 7.75E-01
  AveExpr.ST7612 IFFO1 (probe ILMN_2348268): 8.07E-01
  AveExpr.ST7612 IGSF3 (probe ILMN_1704353): 8.50E-01
  AveExpr.ST7612 ITGB1 (probe ILMN_1714820): 7.06E-01
  AveExpr.ST7612 ITPKA (probe ILMN_1776516): 7.10E-01
  AveExpr.ST7612 JAK1 (probe ILMN_1793384): 7.91E-01
  AveExpr.ST7612 KLHL5 (probe ILMN_1706687): 8.05E-01
  AveExpr.ST7612 KLRAQ1 (probe ILMN_3271092): 7.11E-01
  AveExpr.ST7612 LCMT1 (probe ILMN_1688452): 7.21E-01
  AveExpr.ST7612 LCMT1 (probe ILMN_2336186): 7.52E-01
  AveExpr.ST7612 LMNA (probe ILMN_1737394): 7.98E-01
  AveExpr.ST7612 LOC151162 (probe ILMN_3238058): 7.72E-01
  AveExpr.ST7612 LOC253039 (probe ILMN_3236498): 8.10E-01
  AveExpr.ST7612 LOC283683 (probe ILMN_1659327): 8.30E-01
  AveExpr.ST7612 LOC388588 (probe ILMN_1749834): 7.07E-01
  AveExpr.ST7612 LOC654191 (probe ILMN_1762308): 7.84E-01
  AveExpr.ST7612 LOC727935 (probe ILMN_1691616): 7.14E-01
  AveExpr.ST7612 LOC728014 (probe ILMN_1711699): 8.58E-01
  AveExpr.ST7612 LOC729495 (probe ILMN_3297510): 7.45E-01
  AveExpr.ST7612 LOC730101 (probe ILMN_3305735): 7.41E-01
  AveExpr.ST7612 LOC730415 (probe ILMN_3228688): 6.95E-01
  AveExpr.ST7612 LOC731314 (probe ILMN_1785756): 8.31E-01
  AveExpr.ST7612 LOC100128163 (probe ILMN_3182893): 7.83E-01
  AveExpr.ST7612 LOC100131727 (probe ILMN_3292990): 7.73E-01
  AveExpr.ST7612 LOC100133583 (probe ILMN_3214389): 8.94E-01
  AveExpr.ST7612 LOC100133678 (probe ILMN_3249667): 8.11E-01
  AveExpr.ST7612 LOC100134361 (probe ILMN_3241081): 8.59E-01
  AveExpr.ST7612 LRCH4 (probe ILMN_2157075): 8.54E-01
  AveExpr.ST7612 LRRC1 (probe ILMN_1755383): 7.83E-01
  AveExpr.ST7612 LTA4H (probe ILMN_1690342): 7.50E-01
  AveExpr.ST7612 LYRM5 (probe ILMN_1744534): 7.90E-01
  AveExpr.ST7612 LYSMD4 (probe ILMN_2159859): 6.95E-01
  AveExpr.ST7612 MAP1LC3B (probe ILMN_1703244): 7.73E-01
  AveExpr.ST7612 MAP2K1 (probe ILMN_1694240): 7.15E-01
  AveExpr.ST7612 MAPRE2 (probe ILMN_1695276): 7.72E-01
  AveExpr.ST7612 MARCKSL1 (probe ILMN_1714433): 8.47E-01
  AveExpr.ST7612 MAST3 (probe ILMN_1738749): 7.21E-01
  AveExpr.ST7612 MNS1 (probe ILMN_2157240): 7.07E-01
  AveExpr.ST7612 MTE (probe ILMN_2136089): 8.56E-01
  AveExpr.ST7612 MYBL1 (probe ILMN_3241046): 7.69E-01
